From patent US20240358692A1, “TREATMENT OF SCLERODERMA” (Aisa Pharma, Inc., priority 2023, published 2024)

Tested on: participants with SSc-RP
Experiment: Frequency of weekly RP attacks (all attacks; primary endpoint), patient diary
Type: in vivo, human
Conditions: for Weekly RP Attacks (All Attacks) Change from Baseline, Mean / Weekly RP Attacks (All Attacks) Change from Baseline, Median / Weekly RP Attacks (All Attacks) Percent Change from Baseline, Mean / Weekly RP Attacks (All Attacks) Percent Change from Baseline, Median / Weekly RP Attacks (All Attacks), Mean / Weekly RP Attacks (All Attacks), Median: ITT Part A
From the text: Percent change from baseline evaluation for frequency of weekly RP attacks were or will be used as the primary efficacy variable. The sponsor-developed participant-informed diary will be used to record data. Frequency of weekly RP attacks is defined as the total number of RP attacks divided by the number of days with available diary data within the last 7 days of each dosing period then multiplied by 7. Total number of RP attacks during the last 7 days of screening period divided by the number of days with available data then multiplied by 7 will be used as baseline for the analysis of all periods. The variable will be calculated as follows: […]
Percent change from baseline evaluation for frequency of weekly RP attacks was and will be the primary efficacy endpoint. Frequency of weekly RP attacks is defined as the total number of RP attacks divided by the number of days with available diary data within the last 7 days of each dosing period then multiplied by 7. Total number of RP attacks during the last 7 days of screening period divided by the number of days with available data then multiplied by 7 will be used as baseline for the analysis of all periods.

[1] = Cilnidipine 10 mg, Baseline RCS stratum 1 (upper half of table)
[2] = Cilnidipine 10 mg, Excluding Outliers, Baseline RCS stratum 1 (upper half of table)
[3] = Cilnidipine 20 mg, Baseline RCS stratum 1 (upper half of table)
[4] = Cilnidipine 20 mg, Excluding Outliers, Baseline RCS stratum 1 (upper half of table)
[5] = Pooled Cilnidipine 10 mg and Cilnidipine 10 mg + Tadalafil 5 mg, Baseline RCS stratum 2 (lower half of table)
[6] = Pooled Cilnidipine 10 mg and Cilnidipine 10 mg + Tadalafil 5 mg, Excluding Outliers, Baseline RCS stratum 1 (upper half of table)
[7] = Pooled Cilnidipine 10 mg and Cilnidipine 10 mg + Tadalafil 5 mg, Excluding Outliers, Baseline RCS stratum 2 (lower half of table)
[8] = Pooled Cilnidipine 10 mg and Cilnidipine 10 mg + Tadalafil 5 mg, n=3, excluding outliers, last 7 days of dosing
[9] = Pooled Cilnidipine 10 mg and Cilnidipine 10 mg + Tadalafil 5 mg, n=3, last 7 days of dosing
[10] = Pooled Cilnidipine 20 mg and Cilnidipine 20 mg + Tadalafil 5 mg, Baseline RCS stratum 1 (upper half of table)
[11] = Pooled Cilnidipine 20 mg and Cilnidipine 20 mg + Tadalafil 5 mg, Excluding Outliers, Baseline RCS stratum 1 (upper half of table)
[12] = Pooled Cilnidipine 20 mg and Cilnidipine 20 mg + Tadalafil 5 mg, Excluding Outliers, Baseline RCS stratum 2 (lower half of table)
[13] = Pooled Cilnidipine 20 mg and Cilnidipine 20 mg + Tadalafil 5 mg, n=4, excluding outliers, last 7 days of dosing
[14] = Pooled Cilnidipine 20 mg and Cilnidipine 20 mg + Tadalafil 5 mg, n=4, last 7 days of dosing
[15] = Pooled Cilnidipine arms, n=3, excluding outliers, last 7 days of dosing
[16] = Pooled Cilnidipine arms, n=3, last 7 days of dosing
[17] = Pooled Cilnidipine, Baseline RCS stratum 1 (upper half of table)
[18] = Pooled Cilnidipine, Excluding Outliers, Baseline RCS stratum 1 (upper half of table)
[19] = cilnidipine 10 mg daily, n=1, excluding outliers, last 7 days of dosing
[20] = cilnidipine 10 mg daily, n=1, last 7 days of dosing

COCCOC(=O)C1=C(C)NC(C)=C(C(=O)OC/C=C/c2ccccc2)C1c1cccc([N+](=O)[O-])c1 (centres unmarked) [Cilnidipine]
Weekly RP Attacks (All Attacks) Change from Baseline, Mean [1]: −9.00 | Weekly RP Attacks (All Attacks) Change from Baseline, Median [1]: −9.00 | Weekly RP Attacks (All Attacks) Percent Change from Baseline, Mean [1]: −28.13% | Weekly RP Attacks (All Attacks) Percent Change from Baseline, Median [1]: −28.13% | Weekly RP Attacks (All Attacks), Mean [1]: 23.00 | Weekly RP Attacks (All Attacks), Median [1]: 23.00 | Weekly RP Attacks (All Attacks) Change from Baseline, Mean [2]: −9.00 | Weekly RP Attacks (All Attacks) Change from Baseline, Median [2]: −9.00 | Weekly RP Attacks (All Attacks) Percent Change from Baseline, Mean [2]: −28.13% | Weekly RP Attacks (All Attacks) Percent Change from Baseline, Median [2]: −28.13% | Weekly RP Attacks (All Attacks), Mean [2]: 23.00 | Weekly RP Attacks (All Attacks), Median [2]: 23.00 | Weekly attack frequency (change) (Cilnidipine 20 mg (n = 3)): −43% | Weekly RP Attacks (All Attacks) Change from Baseline, Mean [3]: −6.67 | Weekly RP Attacks (All Attacks) Change from Baseline, Median [3]: −6.67 | Weekly RP Attacks (All Attacks) Percent Change from Baseline, Mean [3]: −45.71% | Weekly RP Attacks (All Attacks) Percent Change from Baseline, Median [3]: −45.71% | Weekly RP Attacks (All Attacks), Mean [3]: 8.00 | Weekly RP Attacks (All Attacks), Median [3]: 8.00 | Weekly RP Attacks (All Attacks) Change from Baseline, Mean [4]: −6.67 | Weekly RP Attacks (All Attacks) Change from Baseline, Median [4]: −6.67 | Weekly RP Attacks (All Attacks) Percent Change from Baseline, Mean [4]: −45.71% | Weekly RP Attacks (All Attacks) Percent Change from Baseline, Median [4]: −45.71% | Weekly RP Attacks (All Attacks), Mean [4]: 8.00 | Weekly RP Attacks (All Attacks), Median [4]: 8.00 | Weekly RP Attacks (All Attacks) Change from Baseline, Median [5]: −5.00 | Weekly RP Attacks (All Attacks), Median [5]: 6.00 | Weekly RP Attacks (All Attacks) Change from Baseline, Mean [6]: −6.50 | Weekly RP Attacks (All Attacks) Change from Baseline, Median [6]: −6.50 | Weekly RP Attacks (All Attacks) Percent Change from Baseline, Mean [6]: −36.28% | Weekly RP Attacks (All Attacks) Percent Change from Baseline, Median [6]: −36.28% | Weekly RP Attacks (All Attacks), Mean [6]: 14.00 | Weekly RP Attacks (All Attacks), Median [6]: 14.00 | Weekly RP Attacks (All Attacks) Change from Baseline, Mean [7]: −5.00 | Weekly RP Attacks (All Attacks) Change from Baseline, Median [7]: −5.00 | Weekly RP Attacks (All Attacks) Percent Change from Baseline, Mean [7]: −45.45% | Weekly RP Attacks (All Attacks) Percent Change from Baseline, Median [7]: −45.45% | Weekly RP Attacks (All Attacks), Mean [7]: 6.00 | Weekly RP Attacks (All Attacks), Median [7]: 6.00 | Weekly RP Attacks (All Attacks) Change from Baseline, Mean [8]: −6.00 | Weekly RP Attacks (All Attacks) Change from Baseline, Median [8]: −5.00 | Weekly RP Attacks (All Attacks) Percent Change from Baseline, Mean [8]: −39.34% | Weekly RP Attacks (All Attacks) Percent Change from Baseline, Median [8]: −44.44% | Weekly RP Attacks (All Attacks), Mean [8]: 11.33 | Weekly RP Attacks (All Attacks), Median [8]: 6.00 | Weekly RP Attacks (All Attacks) Change from Baseline, Mean [9]: −6.00 | Weekly RP Attacks (All Attacks) Change from Baseline, Median [9]: −5.00 | Weekly RP Attacks (All Attacks) Percent Change from Baseline, Mean [9]: −39.34% | Weekly RP Attacks (All Attacks) Percent Change from Baseline, Median [9]: −44.44% | Weekly RP Attacks (All Attacks), Mean [9]: 11.33 | Weekly RP Attacks (All Attacks), Median [9]: 6.00 | Weekly RP Attacks (All Attacks) Percent Change from Baseline, Median [10]: −45.00% | Weekly RP Attacks (All Attacks), Median [10]: 11.00 | Weekly RP Attacks (All Attacks), Median (Pooled Cilnidipine 20 mg and Cilnidipine 20 mg + Tadalafil 5 mg, Baseline RCS stratum 2 (lower half of table)): 11.00 | Weekly RP Attacks (All Attacks) Change from Baseline, Mean [11]: −5.78 | Weekly RP Attacks (All Attacks) Percent Change from Baseline, Mean [11]: −37.49% | Weekly RP Attacks (All Attacks) Percent Change from Baseline, Median [11]: −45.00% | Weekly RP Attacks (All Attacks), Mean [11]: 10.33 | Weekly RP Attacks (All Attacks), Median [11]: 11.00 | Weekly RP Attacks (All Attacks) Change from Baseline, Mean [12]: −1.83 | Weekly RP Attacks (All Attacks) Change from Baseline, Median [12]: −1.83 | Weekly RP Attacks (All Attacks) Percent Change from Baseline, Mean [12]: −14.29% | Weekly RP Attacks (All Attacks) Percent Change from Baseline, Median [12]: −14.29% | Weekly RP Attacks (All Attacks), Mean [12]: 11.00 | Weekly RP Attacks (All Attacks), Median [12]: 11.00 | Weekly RP Attacks (All Attacks) Change from Baseline, Mean [13]: −4.79 | Weekly RP Attacks (All Attacks) Change from Baseline, Median [13]: −4.17 | Weekly RP Attacks (All Attacks) Percent Change from Baseline, Mean [13]: −31.69% | Weekly RP Attacks (All Attacks) Percent Change from Baseline, Median [13]: −33.03% | Weekly RP Attacks (All Attacks), Mean [13]: 10.50 | Weekly RP Attacks (All Attacks), Median [13]: 11.00 | Weekly RP Attacks (All Attacks) Change from Baseline, Mean [14]: −4.79 | Weekly RP Attacks (All Attacks) Change from Baseline, Median [14]: −4.17 | Weekly RP Attacks (All Attacks) Percent Change from Baseline, Mean [14]: −31.69% | Weekly RP Attacks (All Attacks) Percent Change from Baseline, Median [14]: −33.03% | Weekly RP Attacks (All Attacks), Mean [14]: 10.50 | Weekly RP Attacks (All Attacks), Median [14]: 11.00 | Weekly attack frequency (change) (Pooled Cilnidipine (n = 7)): −41% | Weekly RP Attacks (All Attacks) Change from Baseline, Mean [15]: −7.44 | Weekly RP Attacks (All Attacks) Change from Baseline, Median [15]: −9.00 | Weekly RP Attacks (All Attacks) Percent Change from Baseline, Mean [15]: −39.85% | Weekly RP Attacks (All Attacks) Percent Change from Baseline, Median [15]: −45.00% | Weekly RP Attacks (All Attacks), Mean [15]: 13.00 | Weekly RP Attacks (All Attacks), Median [15]: 11.00 | Weekly RP Attacks (All Attacks) Change from Baseline, Median [16]: −9.00 | Weekly RP Attacks (All Attacks) Percent Change from Baseline, Median [16]: −45.00% | Weekly RP Attacks (All Attacks), Mean [16]: 13.00 | Weekly RP Attacks (All Attacks), Median [16]: 11.00 | Weekly RP Attacks (All Attacks) Change from Baseline, Mean [17]: −7.44 | Weekly RP Attacks (All Attacks) Change from Baseline, Median [17]: −9.00 | Weekly RP Attacks (All Attacks) Percent Change from Baseline, Mean [17]: −39.85% | Weekly RP Attacks (All Attacks) Percent Change from Baseline, Median [17]: −45.00% | Weekly RP Attacks (All Attacks), Mean [17]: 13.00 | Weekly RP Attacks (All Attacks), Median [17]: 11.00 | Weekly RP Attacks (All Attacks) Change from Baseline, Mean [18]: −7.44 | Weekly RP Attacks (All Attacks) Change from Baseline, Median [18]: −9.00 | Weekly RP Attacks (All Attacks) Percent Change from Baseline, Mean [18]: −39.85% | Weekly RP Attacks (All Attacks) Percent Change from Baseline, Median [18]: −45.00% | Weekly RP Attacks (All Attacks), Mean [18]: 13.00 | Weekly RP Attacks (All Attacks), Median [18]: 11.00 | Weekly RP Attacks (All Attacks) Change from Baseline, Mean [19]: −9.00 | Weekly RP Attacks (All Attacks) Change from Baseline, Median [19]: −9.00 | Weekly RP Attacks (All Attacks), Mean [19]: 23.00 | Weekly RP Attacks (All Attacks), Median [19]: 23.00 | Weekly RP Attacks (All Attacks) Change from Baseline, Mean [20]: −9.00 | Weekly RP Attacks (All Attacks) Change from Baseline, Median [20]: −9.00 | Weekly RP Attacks (All Attacks), Mean [20]: 23.00
